PubChem BioAssay (NCI)
“And” between values parts separate entries of the source, which are not always exact repeats. Equal values may be shown once.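 Step 1: Grow cells in 96-well plates. Step 2: Expose to compound for 48 hours at 5 concentrations. Step 3: Interpolate endpoints linearly; if unreached, use highest concentration. GI50 marks 50% less growth. TGI: total growth inhibition.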

Assays:
Assay in all cases: DTP human tumour cell line panel, 48 h
COLO 205 colon = system: COLO 205 colon
DU-145 prostate = system: DU-145 prostate
HT29 colon = system: HT29 colon
MALME-3M melanoma = system: MALME-3M melanoma
MCF7 breast = system: MCF7 breast
MDA-MB-435 = system: MDA-MB-435
OVCAR-3 ovarian = system: OVCAR-3 ovarian
SF-295 CNS = system: SF-295 CNS
SF-539 CNS = system: SF-539 CNS
SNB-19 CNS = system: SNB-19 CNS

SMILES	GI50 (COLO 205 colon)	TGI (COLO 205 colon)	GI50 (DU-145 prostate)	TGI (DU-145 prostate)	GI50 (HT29 colon)	TGI (HT29 colon)	GI50 (MALME-3M melanoma)	TGI (MALME-3M melanoma)	GI50 (MCF7 breast)	TGI (MCF7 breast)	GI50 (MDA-MB-435)	TGI (MDA-MB-435)	GI50 (OVCAR-3 ovarian)	TGI (OVCAR-3 ovarian)	GI50 (SF-295 CNS)	TGI (SF-295 CNS)	GI50 (SF-539 CNS)	TGI (SF-539 CNS)	GI50 (SNB-19 CNS)	TGI (SNB-19 CNS)
CC1COCCN1CC#CCOC(=O)c1cc2ccccc2oc1=O (stereo not given)	> 100 µM	> 100 µM	> 100 µM	> 100 µM	> 100 µM	> 100 µM	> 100 µM	> 100 µM	> 100 µM	> 100 µM	> 100 µM	> 100 µM	> 100 µM	> 100 µM	> 100 µM	> 100 µM	> 100 µM	> 100 µM	> 100 µM	> 100 µM
COc1cc2c(cc1O)C1CC(CC3CCCCN31)OC(=O)/C=C\c1ccc(O)c-2c1 (stereo not given)	–	83.1 µM	–	89.6 µM	–	50.4 µM	–	40.2 µM	–	53.2 µM	–	50.8 µM	–	62 µM	–	29.1 µM	–	34.6 µM	–	> 100 µM
Cc1cc(N)cc(C)c1-c1c(Br)cc(N)cc1Br	2.39 µM	4.88 µM	2.89 µM	9.13 µM	2.82 µM	12 µM	10.5 µM	54.3 µM	4.54 µM	> 100 µM	1.78 µM	11.2 µM	2.63 µM	6.3 µM	2.76 µM	12.1 µM	2.89 µM	11.1 µM	5.3 µM	> 100 µM
Cc1cc2c(cc1Cl)SC(C(=O)c1ccc(Cl)c(Cl)c1)NS2(=O)=O (stereo not given)	21 µM	44 µM	32.8 µM	87.6 µM	36.1 µM	> 100 µM	45.3 µM	> 100 µM	21.2 µM	47.3 µM	26.7 µM	65.6 µM	40.7 µM	> 100 µM	34.9 µM	> 100 µM	19.8 µM	42.2 µM	35 µM	> 100 µM
CNc1ncc2cc(-c3cc(NC(=O)NCCC(C)(C)C)c(F)cc3C)c(C)nc2n1	< 0.0133 µM and 0.0135 µM	1.38 µM and > 4.3 µM	0.535 µM and 0.685 µM	> 100 µM	0.0177 µM and 0.0194 µM	> 41.5 µM	< 0.01 µM and 0.00462 µM	< 0.011 µM and 0.0522 µM	4.98 µM and 8.58 µM	> 100 µM	0.0299 µM and 0.0389 µM	> 39.4 µM	1.93 µM and 1.89 µM	> 100 µM	1.56 µM and 1.47 µM	> 100 µM	0.526 µM and 1.05 µM	9.49 µM and > 10 µM	2.23 µM and 1.55 µM	> 100 µM
N=C1/C(=C2\Nc3ccccc3S2)CC(=O)N1c1ccc(SC(F)F)cc1	11.2 µM	> 100 µM	77.1 µM	> 100 µM	1.99 µM	> 100 µM	> 100 µM	> 100 µM	9.35 µM	> 100 µM	7.69 µM	> 100 µM	17.1 µM	> 100 µM	1.1 µM	9.32 µM	4.09 µM	28 µM	29.1 µM	> 100 µM
OCc1ccc(N(Cc2ccc(F)cc2)CC2CCC2)cc1Cl	13.5 µM	26.6 µM	15 µM	28.5 µM	12.9 µM	26.2 µM	16.3 µM	31.8 µM	3.25 µM	16.3 µM	15.4 µM	30 µM	5.28 µM	17.5 µM	4.06 µM	17.5 µM	16.3 µM	30.4 µM	14 µM	27.3 µM
COc1ccc2nc3cc(Cl)ccc3c(Nc3cc(C(C)C)c(O)cc3C)c2c1	1.81 µM	3.64 µM	2.48 µM	6.97 µM	2.31 µM	6.07 µM	1.79 µM	4.4 µM	1.66 µM	3.96 µM	1.8 µM	4.48 µM	1.69 µM	3.26 µM	1.36 µM	3.01 µM	1.81 µM	3.61 µM	2.97 µM	12.7 µM
COc1c2ccccc2c(O)c2c(=O)ccn(C)c12	7.7 µM	> 100 µM	7.67 µM	> 100 µM	16.5 µM	> 100 µM	2.37 µM	5.46 µM	3.31 µM	11.3 µM	2.03 µM	4.32 µM	1.86 µM	11 µM	3.69 µM	27.8 µM	11.5 µM	89.6 µM	7.77 µM	> 100 µM
CCc1ccc([O-])c(C=NCCCN(C)CCCN=Cc2cc(C)ccc2[O-])c1.[Co+3].[N-]=[N+]=[N-]	50 µg/mL and > 150 µg/mL	50 µg/mL and > 150 µg/mL	11.6 µg/mL	50 µg/mL	50 µg/mL and > 150 µg/mL	50 µg/mL and > 150 µg/mL	50 µg/mL and 82.6 µg/mL	50 µg/mL and > 150 µg/mL	50 µg/mL and > 150 µg/mL	50 µg/mL and > 150 µg/mL	50 µg/mL	50 µg/mL	50 µg/mL and 71.1 µg/mL	50 µg/mL and > 150 µg/mL	28.1 µg/mL and 16.9 µg/mL	50 µg/mL and 48.1 µg/mL	50 µg/mL and 22.7 µg/mL	50 µg/mL and 82.3 µg/mL	40.6 µg/mL and 61.6 µg/mL	50 µg/mL and 123 µg/mL
O=C1NC(=N[C@H](CO)c2ccccc2)S/C1=C\c1ccc2ncccc2c1	3.54 µM	> 25 µM	3.3 µM	> 21.3 µM	6.1 µM	> 25 µM	6.21 µM	22.4 µM	4.57 µM	> 25 µM	5.37 µM	> 25 µM	4.13 µM	13.7 µM	4.69 µM	> 20 µM	2.66 µM	7.67 µM	3.73 µM	> 25 µM
C[C@H](c1ccccc1)N(CCC(=O)O)C(=O)CCN(C(=O)CCN(C(=O)CCN[C@H](C)c1ccccc1)[C@H](C)c1ccccc1)[C@H](C)c1ccccc1	> 100 µM	> 100 µM	> 100 µM	> 100 µM	> 100 µM	> 100 µM	> 100 µM	> 100 µM	> 100 µM	> 100 µM	> 100 µM	> 100 µM	> 100 µM	> 100 µM	> 100 µM	> 100 µM	> 100 µM	> 100 µM	> 100 µM	> 100 µM
CC(C)COC(c1ccc2c(c1)OCO2)C(C)Br (stereo not given)	–	49.7 µM	–	> 100 µM	–	45.5 µM	–	36.1 µM	–	86.9 µM	–	51.7 µM	–	34.8 µM	–	53.6 µM	–	71.3 µM	–	> 100 µM
